Values of other authors, collected in patent publication US9132083B2, “Delivery system comprising a silicon-containing material” (SISAF Ltd., priority 2009, dated 2015).

- pKa: about 6
SMILES: [Na+].[O-][Si](O)(O)O [Na^+(OSA)^− salt]
